According to ChEMBL document CHEMBL1153288, “1,3,4-Oxadiazole substituted naphthyridines as HIV-1 integrase inhibitors. Part 2: SAR of the C5 position” (Bioorg Med Chem Lett, 2009):

What was measured:
[1] = Therapeutic index, CC50 for human 293T cells to EC50 for G-pseudotyped HIV; format: cell-based; details: read-out: Ratio CC50/EC50
[2] = system: Human immunodeficiency virus; assay: Antiviral activity against G-pseudotyped HIV expressed in 293T cells with pGI3Luci; format: functional, organism-based; details: Human immunodeficiency virus 1, HEK-293T
[3] = Inhibition of recombinant HIV integrase strand transfer activity; design: species or system Human immunodeficiency virus

SMILES | selectivity ratio [1] | EC50 [2] | IC50 [3]
CN(C)S(=O)(=O)c1ccc(-c2nc(-c3nnc(Cc4ccc(F)cc4)o3)c(O)c3ncccc23)cc1 | 218 | 9 nM | 18 nM
Oc1c(-c2nnc(Cc3ccc(F)cc3)o2)nc(-c2ccc[nH]2)c2cccnc12 | 31 | 160 nM | 12 nM
CC(C)NC(=O)c1cccc(-c2nc(-c3nnc(Cc4ccc(F)cc4)o3)c(O)c3ncccc23)c1 | 182 | 28 nM | 10 nM
O=S1(=O)CCCN1c1nc(-c2nnc(Cc3ccc(F)cc3)o2)c(O)c2ncccc12 | > 129 | 110 nM | 8 nM
CC(C)NC(=O)c1nc(-c2nnc(Cc3ccc(F)cc3)o2)c(O)c2ncccc12 | 22 | 98 nM | 190 nM
O=C(NCCO)c1nc(-c2nnc(Cc3ccc(F)cc3)o2)c(O)c2ncccc12 | > 9 | 1490 nM | 130 nM
NC(=O)c1nc(-c2nnc(Cc3ccc(F)cc3)o2)c(O)c2ncccc12 | 75 | 160 nM | 100 nM
Oc1c(-c2nnc(Cc3ccc(F)cc3)o2)nc(-n2cccn2)c2cccnc12 | 546 | 16 nM | 4 nM
CC(=O)Nc1ccc(-c2nc(-c3nnc(Cc4ccc(F)cc4)o3)c(O)c3ncccc23)cc1 | 591 | 6 nM | 4 nM
Oc1c(-c2nnc(Cc3ccc(F)cc3)o2)nc(-c2ccccc2)c2cccnc12 | 49 | 36 nM | 29 nM
CC(=O)Nc1cccc(-c2nc(-c3nnc(Cc4ccc(F)cc4)o3)c(O)c3ncccc23)c1 | 1400 | 10 nM | 80 nM
Oc1c(-c2nnc(Cc3ccc(F)cc3)o2)nc(-c2ccncc2)c2cccnc12 | 200 | 35 nM | 8 nM
CN(C)C(=O)c1ccc(-c2nc(-c3nnc(Cc4ccc(F)cc4)o3)c(O)c3ncccc23)cc1 | 668 | 12 nM | 18 nM
CN1CCN(c2nc(-c3nnc(Cc4ccc(F)cc4)o3)c(O)c3ncccc23)S1(=O)=O | 137 | 63 nM | 4 nM
O=C1CCCCCN1c1nc(-c2nnc(Cc3ccc(F)cc3)o2)c(O)c2ncccc12 | > 411 | 34 nM | 25 nM
CC(C)NC(=O)c1ccc(-c2nc(-c3nnc(Cc4ccc(F)cc4)o3)c(O)c3ncccc23)cc1 | 95 | 13 nM | 4 nM
CCOC(=O)C(=O)Nc1nc(-c2nnc(Cc3ccc(F)cc3)o2)c(O)c2ncccc12 | 10 | 1300 nM | 33 nM
CS(=O)(=O)Nc1ccc(-c2nc(-c3nnc(Cc4ccc(F)cc4)o3)c(O)c3ncccc23)cc1 | 915 | 9 nM | 3 nM
CC(=O)Nc1nc(-c2nnc(Cc3ccc(F)cc3)o2)c(O)c2ncccc12 | 127 | 110 nM | 72 nM
CNC(=O)c1ccc(-c2nc(-c3nnc(Cc4ccc(F)cc4)o3)c(O)c3ncccc23)cc1 | 780 | 12 nM | 4 nM
O=C(O)c1ccc(-c2nc(-c3nnc(Cc4ccc(F)cc4)o3)c(O)c3ncccc23)cc1 | 241 | 58 nM | 2 nM

SMILES | selectivity ratio [1] | EC50 [2] | IC50 [3]
O=C1CCCN1c1nc(-c2nnc(Cc3ccc(F)cc3)o2)c(O)c2ncccc12 | > 156 | 89 nM | 19 nM
CN(C)S(=O)(=O)Nc1nc(-c2nnc(Cc3ccc(F)cc3)o2)c(O)c2ncccc12 | 127 | 84 nM | 15 nM
N#Cc1ccc(-c2nc(-c3nnc(Cc4ccc(F)cc4)o3)c(O)c3ncccc23)cc1 | 72 | 26 nM | 15 nM
CS(=O)(=O)N1CCN(c2nc(-c3nnc(Cc4ccc(F)cc4)o3)c(O)c3ncccc23)CC1 | 162 | 38 nM | 19 nM
CS(=O)(=O)c1ccc(-c2nc(-c3nnc(Cc4ccc(F)cc4)o3)c(O)c3ncccc23)cc1 | 301 | 8 nM | 9 nM
NC(=O)c1ccc(-c2nc(-c3nnc(Cc4ccc(F)cc4)o3)c(O)c3ncccc23)cc1 | 1220 | 10 nM | 6 nM
O=C1CNCCN1c1nc(-c2nnc(Cc3ccc(F)cc3)o2)c(O)c2ncccc12 | 58 | 240 nM | 38 nM
Nc1cccc(-c2nc(-c3nnc(Cc4ccc(F)cc4)o3)c(O)c3ncccc23)c1 | 546 | 15 nM | 15 nM
CC(=O)N(C)c1nc(-c2nnc(Cc3ccc(F)cc3)o2)c(O)c2ncccc12 | 428 | 180 nM | 28 nM
O=C1CN(c2nc(-c3nnc(Cc4ccc(F)cc4)o3)c(O)c3ncccc23)CCN1 | 844 | 17 nM | 7 nM
CS(=O)(=O)Nc1nc(-c2nnc(Cc3ccc(F)cc3)o2)c(O)c2ncccc12 | 131 | 110 nM | 19 nM
CN(C)S(=O)(=O)c1ccccc1-c1nc(-c2nnc(Cc3ccc(F)cc3)o2)c(O)c2ncccc12 | 67 | 29 nM | 4 nM
COCCNC(=O)c1nc(-c2nnc(Cc3ccc(F)cc3)o2)c(O)c2ncccc12 | 139 | – | 190 nM
O=C(O)c1cccc(-c2nc(-c3nnc(Cc4ccc(F)cc4)o3)c(O)c3ncccc23)c1 | > 60 | 230 nM | 2 nM
CN1CCCN(c2nc(-c3nnc(Cc4ccc(F)cc4)o3)c(O)c3ncccc23)S1(=O)=O | 294 | 31 nM | 6 nM
O=C1CN(C(=O)c2nc(-c3nnc(Cc4ccc(F)cc4)o3)c(O)c3ncccc23)CCN1 | – | > 14000 nM | 74 nM
O=C(O)c1nc(-c2nnc(Cc3ccc(F)cc3)o2)c(O)c2ncccc12 | > 3 | 4400 nM | 860 nM
O=C1NCCN1c1nc(-c2nnc(Cc3ccc(F)cc3)o2)c(O)c2ncccc12 | 311 | 45 nM | 12 nM
O=C(c1nc(-c2nnc(Cc3ccc(F)cc3)o2)c(O)c2ncccc12)N1CCC(O)CC1 | > 65 | 220 nM | 27 nM
CS(=O)(=O)Nc1cccc(-c2nc(-c3nnc(Cc4ccc(F)cc4)o3)c(O)c3ncccc23)c1 | 435 | 14 nM | 8 nM
O=C1CCCCN1c1nc(-c2nnc(Cc3ccc(F)cc3)o2)c(O)c2ncccc12 | > 160 | 87 nM | 88 nM

SMILES | selectivity ratio [1] | EC50 [2] | IC50 [3]
Oc1c(-c2nnc(Cc3ccc(F)cc3)o2)nc(-c2cnccn2)c2cccnc12 | 24 | 170 nM | 20 nM
Oc1c(-c2nnc(Cc3ccc(F)cc3)o2)nc(-c2ccoc2)c2cccnc12 | 116 | 100 nM | 23 nM
O=C1NCCCN1c1nc(-c2nnc(Cc3ccc(F)cc3)o2)c(O)c2ncccc12 | > 250 | 56 nM | 11 nM
CN(C)C(=O)C(=O)N(C)c1nc(-c2nnc(Cc3ccc(F)cc3)o2)c(O)c2ncccc12 | > 40 | 310 nM | 85 nM
CS(=O)(=O)c1cccc(-c2nc(-c3nnc(Cc4ccc(F)cc4)o3)c(O)c3ncccc23)c1 | 234 | 13 nM | 6 nM
O=C(NCCCO)c1nc(-c2nnc(Cc3ccc(F)cc3)o2)c(O)c2ncccc12 | > 30 | 470 nM | 71 nM
O=S1(=O)CCCCN1c1nc(-c2nnc(Cc3ccc(F)cc3)o2)c(O)c2ncccc12 | 198 | 13 nM | 2 nM
O=C1OCCN1c1nc(-c2nnc(Cc3ccc(F)cc3)o2)c(O)c2ncccc12 | > 666 | 21 nM | 13 nM
CN(C)C(=O)CN1CCN(c2nc(-c3nnc(Cc4ccc(F)cc4)o3)c(O)c3ncccc23)CC1 | 205 | 43 nM | 12 nM
CNS(=O)(=O)c1ccccc1-c1nc(-c2nnc(Cc3ccc(F)cc3)o2)c(O)c2ncccc12 | 173 | 22 nM | 4 nM
CS(=O)(=O)c1ccccc1-c1nc(-c2nnc(Cc3ccc(F)cc3)o2)c(O)c2ncccc12 | 243 | 23 nM | 11 nM
CN1CCN(C(=O)c2nc(-c3nnc(Cc4ccc(F)cc4)o3)c(O)c3ncccc23)CC1 | > 144 | 97 nM | 44 nM
N#Cc1nc(-c2nnc(Cc3ccc(F)cc3)o2)c(O)c2ncccc12 | – | > 35000 nM | 240 nM
O=C1N(CCO)CCN1c1nc(-c2nnc(Cc3ccc(F)cc3)o2)c(O)c2ncccc12 | 148 | 94 nM | 13 nM
O=C(c1nc(-c2nnc(Cc3ccc(F)cc3)o2)c(O)c2ncccc12)N1CCOCC1 | 134 | 97 nM | 130 nM
CNc1nc(-c2nnc(Cc3ccc(F)cc3)o2)c(O)c2ncccc12 | 30 | 400 nM | 74 nM
CNC(=O)c1nc(-c2nnc(Cc3ccc(F)cc3)o2)c(O)c2ncccc12 | 43 | 150 nM | 120 nM
CN(C)C(=O)N1CCN(c2nc(-c3nnc(Cc4ccc(F)cc4)o3)c(O)c3ncccc23)C(=O)C1 | 120 | 87 nM | 23 nM
CC(C)NS(=O)(=O)c1ccc(-c2nc(-c3nnc(Cc4ccc(F)cc4)o3)c(O)c3ncccc23)cc1 | 118 | 15 nM | 4 nM
Cc1ccccc1S(=O)(=O)Nc1nc(-c2nnc(Cc3ccc(F)cc3)o2)c(O)c2ncccc12 | 74 | 190 nM | 42 nM
CC(C)NS(=O)(=O)c1ccccc1-c1nc(-c2nnc(Cc3ccc(F)cc3)o2)c(O)c2ncccc12 | 295 | 8 nM | 12 nM
